Reference: patent US20090203685A1, “ANTI-PROLIFERATIVE COMPOUNDS FROM A 3-ARYL-COUMARINE OR 3-ARYL-QUINOLIN-2-ONE AND USES THEREOF” (EOS (ETHICAL ONCOLOGY SCIENCE) S.P.A., priority 2006, published 2009)

Assays:
[1] = test system: small cell lung carcinoma (SCLC) and lymphoid cells; details: cited from earlier work
[2] = test system: SCLC tumor; details: in vivo; cited from earlier work
[3] = test system: U937 cells; experiment: Proliferation test ViaLight HS, U937 cells (Example 8); assay type: cell-based, human; details: Homo sapiens, U-937, 72 h, 72 h incubation; range = multiple experiments, otherwise individual experiments
Description: 2C Proliferation test ViaLight® HS High Sensitivity Cytotoxicity and Cell Proliferation BioAssay Kit
This protocol allows the determination of the cytostatic and cytotoxic activities of compounds to be tested on mammalian cells in culture and was carried out essentially according to the manufacturer's recommendations.
Cells are suspended in 15 mL of their respective media and are enumerated. They are then diluted in their media in order to obtain: • 2500 cells per 90 μL per well for MRC5 cells • 5000 cells per 90 μL per well for all other cell lines. Cells are then seeded in a 96 well plate, and incubated at least 4 hours in the incubator at 37° C. in 5% CO2.
The molecules to be tested are diluted in DMEM with DMSO in order to obtain the following dilutions: • dilution at 250 μM/1% DMSO • dilution at 50 μM/1% DMSO • dilution at […] • dilution at 2 μM/1% DMSO • dilution at 400 nM/1% DMSO • dilution at 80 nM/1% DMSO For each well comprising 90 μL of cell suspension, 10 μL of a solution of the compound to be tested is added, with the 6 different concentrations. The plate is then incubated during 72 hours. One control plate is contacted with 10 μL of DMEM 1% DMSO, without compound to be tested. 50 μL of lysis buffer (test Vialight® lysis buffer) is added in each well of the control plate and the plate is incubated 10 minutes under hood.
Then, 100 μL of test buffer (test Vialight® test buffer) is added in each well and the control plate is incubated during 2 minutes. The luminescence is read in each well. The mean luminescence for each type of cells is called T0.
After the 72 h incubation, in order to determine the viability, 50 μL of lysis buffer (test Vialight® lysis buffer) is added in each well of the plates and the plates are incubated 10 minutes under hood.
Then, 100 μL of test buffer (test Vialight® test buffer) is added in each well and the plates are incubated during 2 minutes. The luminescence is read in each well. For each type of cell, the mean luminescence in the well not containing the compound is called C72 and the mean luminescence in well containing a given concentration of a compound to be tested is called T72. For each dilution (concentration of compound to be tested), T0 and T72 values are compared.
The graph is plotted for the different concentrations of compound and • GI50 (50% of growth inhibitory) is determined, this is the dose producing 50% of cell growth (intersection at Y=50); • TGI (total growth inhibitory) is determined on the graph, this is the dose producing the total arrest of the cell growth (intersection at Y=0); and • LC50 (50% of lethal concentration) is determined, this is the dose producing the death of 50% of the cells (intersection at Y=−50).
Following the protocol described in Example 2C, different compounds according to the invention have been tested for their cytostatic and cytotoxic activities on mammalian cells in culture (specifically U937 cells).
The GI50 (50% of growth inhibitory) has been determined for all the following compounds, i.e. the dose producing 50% of cell growth inhibition.
Where the GI50 provided is in the form of a range, it means that multiple experiments, whose results fall within the range indicated, were performed. Otherwise, results of individual experiments are provided.

[4] = target: T1, interaction between 6×His-Bcl-xL and GST-BF8 (Homo sapiens, UniProt Q07817); experiment: Pull down assay, Bcl-xL/BF8 in vitro interaction; assay type: binding; details: 50 μM, 5% DMSO; Western blot
T1 construct: made in house; host or cells: E. coli
Description: FIG. 3: Inhibition of the interaction between Bcl-xL and BF8, a peptide aptamer that targets the hydrophobic groove of BCL-2 family members. […]
C+: 6×His-Bcl-xL captured by GST-BF8, in presence of 5% DMSO. (02): 6×His-Bcl-xL captured by GST-BF8, in presence of 50 μM of compound 02 (in 5% DMSO). (01): 6×His-Bcl-xL captured by GST-BF8, in presence of 50 μM of compound 01 (in 5% DMSO).
A peptide aptamer (dubbed BF8) has been selected against the anti-apoptotic protein Bfl1, member of the BCL-2 family. […] Two lines of evidence indicate that BF8 binds the hydrophobic groove of anti-apoptotic BCL-2-like proteins. First, the amino-acid sequence of its variable region bears similarities with the sequence of the BH3 domains of pro-apoptotic members of the BCL-2 family (such as Bak or Bax), known to bind the anti-apoptotic proteins via this hydrophobic groove. Second, BF8 no longer binds a mutated variant of Bfl-1 that bears an amino-acid substitution within the said hydrophobic groove.
A Bcl-xL/BF8 in vitro interaction assay was developed to examine the capacity of the compounds of the invention to disrupt this interaction by competition with the peptide aptamer. 6×His-Bcl-xL and GST-BF8 recombinant fusion proteins were expressed in E. coli and purified using affinity chromatography. […]

[5] = test system: melanoma, breast, cervical, prostate, colon tumor cells; details: cited from earlier work
[6] = in vivo; cited from earlier work

T1 sequence (Q07817 whole entry): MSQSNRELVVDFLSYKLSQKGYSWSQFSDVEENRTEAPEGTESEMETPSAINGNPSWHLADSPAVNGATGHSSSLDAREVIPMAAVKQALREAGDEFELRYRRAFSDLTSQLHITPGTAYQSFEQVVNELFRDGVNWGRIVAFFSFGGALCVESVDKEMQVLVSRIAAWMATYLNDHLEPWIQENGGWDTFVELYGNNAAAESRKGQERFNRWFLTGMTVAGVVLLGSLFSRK

Row | Structure (SMILES) | GI50 [3] | further results
1 | CN(C)CC[C@H](CSc1ccccc1)Nc1ccc(S(=O)(=O)NC(=O)c2ccc(N3CCN(Cc4ccccc4-c4ccc(Cl)cc4)CC3)cc2)cc1[N+](=O)[O-] [ABT-737] |  | Apoptosis of SCLC and lymphoid cells [1]: induces apoptosis; SCLC tumor regression in mouse models [2]: induces SCLC tumor regression
2 | COc1cc(NC(=S)NC(=O)c2ccccc2)ccc1-c1cc2ccccc2oc1=O [Compound 02, N-({[3-methoxy-4-(2-oxo-2H-chromen-3-yl)phenyl]amino}carbonothioyl)benzamide] | 600 to 860 nM | Inhibition of the in vitro interaction between 6×His-Bcl-xL and GST-BF8 [4]: inhibit
3 | COc1cc(NC(=N)NC(=O)c2ccccc2)ccc1-c1cc2ccccc2[nH]c1=O [Compound 22, N-Benzoyl-N′-[3-methoxy-4-(2-oxo-1,2-dihydro-quinolin-3-yl)-phenyl]-guanidine] | 1000 nM | 
4 | COc1cc(N(C(C)=O)S(=O)(=O)c2cc(C)oc2C)ccc1-c1cc2ccccc2oc1=O [Compound 23, 2,5-dimethyl-furan-3-sulfonic acid acetyl-[3-methoxy-4-(2-oxo-2H-chromen-3-yl)-phenyl]-amide] | ~500 nM | 
5 | COc1cc(/N=C(\SC)N(C)C(=O)/C=C/c2ccco2)ccc1-c1cc2ccccc2oc1=O [Compound 24, 1-((E)-3-furan-2-yl-acryloyl)-3-[3-methoxy-4-(2-oxo-2H-chromen-3-yl)-phenyl]-1,2-dimethyl-isothiourea] | 33 nM | 
6 | COc1cc(/N=C(\SC)N(C)C(=O)c2ccc(F)cc2)ccc1-c1cc2ccccc2oc1=O [Compound 25, 1-(4-fluoro-benzoyl)-3-[3-methoxy-4-(2-oxo-2H-chromen-3-yl)-phenyl]-1,2-dimethyl-isothiourea] | 410 nM | 
7 | COC1=CC(c2cc3ccccc3[nH]2)=N/C1=C\c1[nH]c(C)cc1C [GX15-070] |  | Growth of melanoma, breast, cervical, prostate, colon tumor cells [5]: inhibit growth; MTD (maximal tolerated dose) [6]: approx 16 mg/kg
